Laboratory results reported in article PMC8037182, “Solvothermal Synthesis of Multiple Dihydropyrimidinones at a Time as Inhibitors of Eg5” (Molecules, 2021).

Tested on: Hela cell line
Experiment: Cytotoxicity MTS assay, Hela cell line
Assay type: cell-based
Details: for OD490 Mean / OD490 Well 1 / OD490 Well 2 / OD490 Well 3: Hela cell line; for IC50: MTS assay, 24 h exposure
Method: The positive compounds (IC50 < 100 μM) obtained from the primary Eg5 motor protein ATPase assay were tested for antiproliferative activity in vitro against Caco-2 cell line, Hela cell line, L929 cell line and T24 cell line by performing MTS assay. Cells were introduced into 96-well plates at a density of 1000 cells per well. After 24 h incubation, the cells were exposed with compounds at final concentrations ranging from 0.5 to 100 µM for 24 h. DMSO was used at a final concentration of 0.025% as blank control, monastrol was used as the positive control. Then 20 µL (CellTiter 96® AQueous One Solution Promega, Madison, WI, USA) reagent was added in each well. After 2 h at 37 °C in a 80% humidified, 5% CO2 atmosphere, the absorbance at 490 nm was recorded using a microplate reader (BIO-RAD iMark^TM). The results were obtained in three independent duplicate experiments. The primary data were shown in Supplementary Materials Tables S4–S7. The IC50 values for these compounds were calculated from a non-linear regression graph plotted between the percentage of cell viability and concentration with SPSS17.0 software.

CCOC(=O)C1=C(C)NC(=S)NC1c1cccc(O)c1 (centres unmarked) [Monastrol, monastrol, reference compound]
OD490 Mean (0.5μM, first assay): 2.4571 | OD490 Well 1 (0.5μM, first assay): 2.3556 | OD490 Well 2 (0.5μM, first assay): 2.5698 | OD490 Well 3 (0.5μM, first assay): 2.4458 | OD490 Mean (0.5μM, second assay): 2.6032 | OD490 Well 1 (0.5μM, second assay): 2.5874 | OD490 Well 2 (0.5μM, second assay): 2.6523 | OD490 Well 3 (0.5μM, second assay): 2.5698 | OD490 Mean (0.5μM, third assay): 2.6247 | OD490 Well 1 (0.5μM, third assay): 2.6417 | OD490 Well 2 (0.5μM, third assay): 2.5470 | OD490 Well 3 (0.5μM, third assay): 2.6854 | OD490 Mean (1μM, first assay): 2.1630 | OD490 Well 1 (1μM, first assay): 2.3365 | OD490 Well 2 (1μM, first assay): 2.0131 | OD490 Well 3 (1μM, first assay): 2.1393 | OD490 Mean (1μM, second assay): 2.5460 | OD490 Well 1 (1μM, second assay): 2.5687 | OD490 Well 2 (1μM, second assay): 2.5478 | OD490 Well 3 (1μM, second assay): 2.5214 | OD490 Mean (1μM, third assay): 2.5064 | OD490 Well 1 (1μM, third assay): 2.5748 | OD490 Well 2 (1μM, third assay): 2.5214 | OD490 Well 3 (1μM, third assay): 2.4230 | OD490 Mean (10μM, first assay): 2.2162 | OD490 Well 1 (10μM, first assay): 2.1607 | OD490 Well 2 (10μM, first assay): 2.2561 | OD490 Well 3 (10μM, first assay): 2.2317 | OD490 Mean (10μM, second assay): 2.5812 | OD490 Well 1 (10μM, second assay): 2.6541 | OD490 Well 2 (10μM, second assay): 2.5541 | OD490 Well 3 (10μM, second assay): 2.5354 | OD490 Mean (10μM, third assay): 2.5198 | OD490 Well 1 (10μM, third assay): 2.6510 | OD490 Well 2 (10μM, third assay): 2.2561 | OD490 Well 3 (10μM, third assay): 2.6524 | OD490 Mean (25μM, first assay): 2.2546 | OD490 Well 1 (25μM, first assay): 2.1835 | OD490 Well 2 (25μM, first assay): 2.2875 | OD490 Well 3 (25μM, first assay): 2.2928 | OD490 Mean (25μM, second assay): 2.5253 | OD490 Well 1 (25μM, second assay): 2.6854 | OD490 Well 2 (25μM, second assay): 2.3365 | OD490 Well 3 (25μM, second assay): 2.5541 | OD490 Mean (25μM, third assay): 2.5000 | OD490 Well 1 (25μM, third assay): 2.5874 | OD490 Well 2 (25μM, third assay): 2.2584 | OD490 Well 3 (25μM, third assay): 2.6541 | OD490 Mean (50μM, first assay): 2.5586 | OD490 Well 1 (50μM, first assay): 2.7188 | OD490 Well 2 (50μM, first assay): 2.4306 | OD490 Well 3 (50μM, first assay): 2.5263 | OD490 Mean (50μM, second assay): 2.4511 | OD490 Well 1 (50μM, second assay): 2.3541 | OD490 Well 2 (50μM, second assay): 2.5478 | OD490 Well 3 (50μM, second assay): 2.4514 | OD490 Mean (50μM, third assay): 2.6173 | OD490 Well 1 (50μM, third assay): 2.5412 | OD490 Well 2 (50μM, third assay): 2.6521 | OD490 Well 3 (50μM, third assay): 2.6587 | OD490 Mean (100μM, first assay): 2.2182 | OD490 Well 1 (100μM, first assay): 2.3464 | OD490 Well 2 (100μM, first assay): 2.1470 | OD490 Well 3 (100μM, first assay): 2.1612 | OD490 Mean (100μM, second assay): 2.5306 | OD490 Well 1 (100μM, second assay): 2.4236 | OD490 Well 2 (100μM, second assay): 2.6540 | OD490 Well 3 (100μM, second assay): 2.5142 | OD490 Mean (100μM, third assay): 2.4597 | OD490 Well 1 (100μM, third assay): 2.3654 | OD490 Well 2 (100μM, third assay): 2.5784 | OD490 Well 3 (100μM, third assay): 2.4352 | IC50 (Homo sapiens, HeLa, 24 h): > 150 µM | IC50: > 150 µM
